Read-outs that look alike come from different tables or passages of the source.
Assays:
ML2 = test: Secondary dose-response HTS, Cell Titer Glo; format: cell-based, human; conditions: secondary high-throughput screen, ML-2; for EC50: read-out: average effective concentration, ML-2
CHRF288-11 [1] = test: Secondary dose-response HTS, Cell Titer Glo; format: cell-based, human; conditions: secondary high-throughput screen, CHRF288-11; for EC50: read-out: average effective concentration, CHRF288-11
MV4-11 [2] = test: cells; design: species or system AML cell lines (8); Secondary HTS, 10-point dose-response in triplicate, Cell Titer Glo viability, four-parameter fit EC50; conditions: Homo sapiens, MV4-11, 72 h, read-out: MV4-11
CMS = test: Secondary dose-response HTS, Cell Titer Glo; format: cell-based, human; conditions: for EC50: read-out: average effective concentration, CMS
M07e = test: Secondary dose-response HTS, Cell Titer Glo; format: cell-based, human; conditions: secondary high-throughput screen; for EC50: read-out: average effective concentration, M07e
U937 [3] = test: Secondary dose-response HTS, Cell Titer Glo; format: cell-based, human; conditions: secondary high-throughput screen, U937; for EC50: read-out: average effective concentration, U937
CMK = test: Secondary dose-response HTS, Cell Titer Glo; format: cell-based, human; conditions: CMK; for EC50: read-out: average effective concentration, CMK
MOLM-13 [4] = test: cells; design: species or system AML cell lines (8); Secondary HTS, 10-point dose-response in triplicate, Cell Titer Glo viability, four-parameter fit EC50; conditions: Homo sapiens, MOLM-13, 72 h, read-out: MOLM-13
MOLM-13 [5] = test: Secondary dose-response HTS, Cell Titer Glo; format: cell-based, human; conditions: secondary high-throughput screen, MOLM-13; for EC50: read-out: average effective concentration, MOLM-13
U937 [6] = test: cells; design: species or system AML cell lines (8); Secondary HTS, 10-point dose-response in triplicate, Cell Titer Glo viability, four-parameter fit EC50; conditions: Homo sapiens, U-937, 72 h, read-out: U937
MV4-11 [7] = test: Secondary dose-response HTS, Cell Titer Glo; format: cell-based, human; conditions: secondary high-throughput screen, MV4-11; for EC50: read-out: average effective concentration, MV4-11
CHRF288-11 [8] = test: cells; design: species or system AML cell lines (8); Secondary HTS, 10-point dose-response in triplicate, Cell Titer Glo viability, four-parameter fit EC50; conditions: 72 h, read-out: CHRF288-11
[9] = Homo sapiens, HTS, secondary high-throughput screen, CMS
[10] = Homo sapiens, secondary high-throughput screen
[11] = secondary high-throughput screen, CMS
[12] = secondary high-throughput screen

Molecule | EC50 (ML2; Homo sapiens) [µM] | EC50 (CHRF288-11 [1]; Homo sapiens, HTS) [µM] | EC50 (M07e; Homo sapiens, M-07e, M07e) [µM] | EC50 (U937 [3]; Homo sapiens, U-937) [µM] | EC50 (MOLM-13 [5]; Homo sapiens) [µM] | EC50 (CMS; [9]) [µM] | EC50 (MV4-11 [7]; Homo sapiens) [µM] | EC50 (CMK; [10]) [µM] | average effective concentration, ML-2 (ML2) | average effective concentration, MOLM-13 (MOLM-13 [5]) | average effective concentration, CHRF288-11 (CHRF288-11 [1]) | average effective concentration, CMS (CMS; [11]) | average effective concentration, M07e (M07e; M07e) | average effective concentration, MV4-11 (MV4-11 [7]) | average effective concentration, U937 (U937 [3]) | average effective concentration, CMK (CMK; [12]) | other results
CC(C)[C@H](C(=O)Nc1ccc(C(=O)NO)cc1)c1ccccc1 [(S)-HDAC-42] | 0.33 | 0.26 | 0.16 | 0.22 | – | – | – | – | – | – | – | – | – | – | – | – | EC50 (MV4-11 [2]): > 10 µM; EC50 (CMS; Homo sapiens, HTS): 0.22 µM; EC50 (CMK; Homo sapiens): 0.038 µM; EC50 (MOLM-13 [4]): > 10 µM
O=c1[nH]c(=O)n([C@H]2C[C@H](O)[C@@H](CO)O2)cc1F [FLOXURIDINE] | 0.021 | 0.067 | 8.2 | – | 0.023 | 7.9 | 0.13 | 0.98 | – | – | – | – | – | – | – | – | EC50 (U937 [6]): > 10 µM
CCN(CC)CCCC(C)Nc1c2ccc(Cl)cc2nc2ccc(OC)cc12 (stereo not shown) [QUINACRINE] | > 10 | – | 7.7 | 3.9 | 2.9 | 5.5 | 3.8 | 7.7 | – | – | – | – | – | – | – | – | EC50 (CHRF288-11 [8]): > 10 µM
CCN(CC)CCNC(=O)c1c(C)[nH]c(/C=C2\C(=O)Nc3ccc(F)cc32)c1C [SUNITINIB] | 0.27 | 0.49 | 0.46 | 0.27 | 0.019 | > 10 | 0.034 | 0.33 | – | – | – | – | – | – | – | – | –
Nc1nc2nc[nH]c2c(=S)[nH]1 [THIOGUANINE] | 6.3 | 3.5 | > 10 | > 10 | 4.9 | > 10 | 3 | 3.8 | – | – | – | – | – | – | – | – | –
CC[C@@]1(O)C(=O)OCc2c1cc1n(c2=O)Cc2cc3c(CN(C)C)c(O)ccc3nc2-1 [TOPOTECAN] | 0.25 | 0.5 | 1.7 | 0.69 | 0.12 | 7.2 | 0.17 | 0.47 | – | – | – | – | – | – | – | – | –
COc1cc(NCc2ccc3nc(N)nc(N)c3c2C)cc(OC)c1OC [TRIMETREXATE] | 2.9 | 7.6 | 10 | > 10 | 0.17 | 1.7 | 1.8 | 4.2 | – | – | – | – | – | – | – | – | –
COc1cc2c(NC3CCN(C)CC3)nc(N3CCCN(C)CC3)nc2cc1OCCCN(C)C [UNC0224] | – | – | – | – | – | – | – | – | Inactive | Inactive | Inactive | Inactive | Inactive | Inactive | Inactive | Inactive | –
COc1cc2c(NC3CCN(C)CC3)nc(N3CCCN(C)CC3)nc2cc1OCCOCCN(C)C [UNC0321] | – | – | – | – | – | – | – | – | Inactive | Inactive | Inactive | Inactive | Inactive | Inactive | Inactive | Inactive | –
COc1cc2c(NC3CCN(C(C)C)CC3)nc(C3CCCCC3)nc2cc1OCCCN1CCCC1 [UNC0638 HYDRATE] | > 10 | > 10 | – | 4.5 | > 10 | 6 | – | – | – | – | – | – | – | Inactive | – | Inactive | EC50 (M07e; Homo sapiens, M-07e, […]): 5 µM
CC[C@]1(O)C[C@H]2CN(CCc3c([nH]c4ccccc34)[C@@](C(=O)OC)(c3cc4c(cc3OC)N(C=O)[C@H]3[C@@](O)(C(=O)OC)[C@H](OC(C)=O)[C@]5(CC)C=CCN6CC[C@]43[C@@H]65)C2)C1 [VINCRISTINE] | 0.008 | 0.39 | 0.001 | 0.035 | 0.043 | 0.23 | 0.02 | > 10 | – | – | – | – | – | – | – | – | –
CCn1c(=O)c(-c2cc[nH]n2)cc2c(C)nc(N)nc21 [Voxtalisib] | – | – | – | – | – | – | – | – | Inactive | Inactive | Inactive | Inactive | Inactive | Inactive | Inactive | Inactive | –
CN1CCc2c(c3ccccc3n2Cc2ccc(C(=O)NO)cc2)C1 [[…]] | – | – | – | – | > 10 | – | – | – | Inactive | – | Inactive | Inactive | – | Inactive | Inactive | Inactive | average effective concentration, M07e (M07e; […]): Inactive
(-)-NUTLIN-3 | – | – | – | – | – | – | – | – | – | – | Inactive | Inactive | – | Inactive | Inactive | Inactive | EC50 (ML2): 4.9 µM; EC50 (MOLM-13 [5]): 0.94 µM; EC50 (M07e; M07e): 0.16 µM
ANACARDIC ACID | – | – | – | – | – | – | – | – | Inactive | Inactive | Inactive | Inactive | Inactive | Inactive | Inactive | Inactive | –
AZ-20 | – | – | – | – | – | – | – | – | – | Inactive | – | – | – | Inactive | – | Inactive | EC50 (ML2): 0.03 µM; EC50 (CHRF288-11 [1]): 2.5 µM; EC50 (CMS; [11]): 0.6 µM; EC50 (M07e; M07e): 0.2 µM; EC50 (U937 [3]): 4.7 µM
EB-47 | – | – | – | – | – | – | – | – | Inactive | Inactive | Inactive | Inactive | Inactive | Inactive | Inactive | Inactive | –
IC-87114 | – | – | – | – | – | – | – | – | Inactive | Inactive | Inactive | Inactive | Inactive | Inactive | Inactive | Inactive | –
LB 42708 | – | – | – | – | – | – | – | – | – | – | Inactive | – | Inactive | – | Inactive | Inactive | EC50 (ML2): 2.3 µM; EC50 (MOLM-13 [5]): 2.5 µM; EC50 (CMS; [11]): 3.4 µM; EC50 (MV4-11 [7]): 5 µM
MST312 | – | – | – | – | – | – | – | – | – | – | – | – | – | Inactive | – | Inactive | EC50 (ML2): 3.7 µM; EC50 (MOLM-13 [5]): 1.5 µM; EC50 (CHRF288-11 [1]): 2 µM; EC50 (CMS; [11]): 2.9 µM; EC50 (M07e; M07e): 5.2 µM; EC50 (U937 [3]): 2.8 µM
PU-H71 | – | – | – | – | – | – | – | – | – | – | – | – | Inactive | – | Inactive | – | EC50 (ML2): 0.082 µM; EC50 (MOLM-13 [5]): 0.019 µM; EC50 (CHRF288-11 [1]): 0.17 µM; EC50 (CMS; [11]): 0.18 µM; EC50 (MV4-11 [7]): 0.023 µM; EC50 (CMK; [12]): 0.024 µM
SCR7 | – | – | – | – | – | – | – | – | Inactive | Inactive | Inactive | Inactive | Inactive | Inactive | Inactive | Inactive | –
SN-38 | – | – | – | – | – | – | – | – | – | – | – | Inactive | – | – | – | – | EC50 (ML2): 0.00251 µM; EC50 (MOLM-13 [5]): 0.0056 µM; EC50 (CHRF288-11 [1]): 0.00949 µM; EC50 (M07e; M07e): 0.044 µM; EC50 (MV4-11 [7]): 0.24 µM; EC50 (U937 [3]): 0.037 µM; EC50 (CMK; [12]): 0.023 µM
